By IC50 is commonly meant the concentration at which inhibition is half-maximal.

This assay concerns RRV. Briefly: microbe, parasite or virus in culture. Format: cell-based. Conditions: Ross River virus, HeLa Kyoto, read-out: IC50 RRV.

Structures are written as SMILES. Where a name gives a salt, the structure may show the parent alone.

Take `CCN(CC)Cc1cc(Nc2ccnc3cc(Cl)ccc23)ccc1O` [Amodiaquine, Amodiaquine dihydrochloride dihydrate]: the half-maximal inhibitory concentration (IC50) turned out to be 6.2 µM. Turning to `CC(C)COCC(CN(Cc1ccccc1)c1ccccc1)N1CCCC1` (stereo not shown) [Bepridil, Bepridil hydrochloride], the half-maximal inhibitory concentration (IC50) is 4.6 µM.

On to `CNc1ccc2oc(C[C@H]3O[C@@]4(CC[C@H]3C)O[C@H]([C@H](C)C(=O)c3ccc[nH]3)[C@H](C)C[C@H]4C)nc2c1C(=O)O` [Calcimycin], for which the IC50 is 6.5 µM. On to `O=C1c2c(O)ccc(O)c2C(=O)c2c(NCCNCCO)ccc(NCCNCCO)c21` [Mitoxantrone, Mitoxantrone dihydrochloride], for which the IC50 was 4.9 µM. Turning to `CC[C@@]1([C@@H]2O[C@@H]([C@H]3O[C@@](O)(CO)[C@H](C)C[C@@H]3C)C[C@@H]2C)CC[C@H]([C@]2(C)CC[C@]3(C[C@H](O)[C@@H](C)[C@@H]([C@@H](C)[C@@H](OC)[C@H](C)C(=O)O)O3)O2)O1` [Monensin, Monensin sodium salt], the IC50 turned out to be 4.6 µM.

Take `O=C(Nc1ccc([N+](=O)[O-])cc1Cl)c1cc(Cl)ccc1O` [Niclosamide]: the 50% inhibitory concentration (IC50) stood at 0.82 µM. Regarding `C=C1C(=O)O[C@H]2[C@H]1CC/C(C)=C/CC[C@@]1(C)O[C@@H]21` [Parthenolide], the IC50 was found to be 7.7 µM.

The record behind these values is PMC6410080 (Viruses, 2019).
